Measurements published in patent US5631146A, “DNA aptamers and catalysts that bind adenosine or adenosine-5'-phosphates and methods for isolation thereof” (The General Hospital Corporation, priority 1995, dated 1997).

Legend:
[1] = system: adenosine/ATP-binding single-stranded DNA aptamer (minimal ATP aptamer DH25.42, SEQ ID NO:46); assay: ATP analog elution of bound aptamer from ATP-agarose column; conditions: 3 column volumes of 1.5 mM analog
Experimental: FIG. 9A-C are graphs of exemplary elution profiles with analogs of ATP. DNA was loaded onto an ATP-agarose affinity column and washed with 10 column volumes of wash buffer. Bound DNA was then eluted with 3 column volumes of wash buffer containing 1.5 mM analog, then washed with 2 more column volumes of wash buffer; remaining DNA was then eluted in 3 column volumes of wash buffer containing 1.5 mM ATP. Data point at column volume 19 is that remaining on the column after all washes. Elution profiles with 9A. adenosine, 9B. 3-methyl adenine, and 9C. purine riboside.
FIG. 10 is a schematic diagram showing the specifity of the adenosine/ATP aptamer, as determined by analog elution experiments. ++, 85-100% of DNA eluted in 3 column volumes of 1.5 mM ligand; +, 70-84% of DNA eluted in 3 column volumes of 1.5 mM ligand; +/-, 6%-69% of DNA eluted in 3 column volumes of 1.5 mM ligand; -, <5% of DNA eluted in 3 column volumes of 1.5 mM ligand. The regions most important for binding are highlighted by the shaded boxes. […]
10-500 ng (1.2 pmol-60 pmol) of affinity purified DNA was loaded onto a 1/4 ml bed volume ATP-agarose column pre-equilibrated with column buffer. […] Each fraction was then analyzed by Cerenkov counting. […]

[2] = target: adenosine/ATP-binding single-stranded DNA aptamer (minimal ATP aptamer DH25.42, SEQ ID NO:46); assay: Kd for adenosine by analytical ultrafiltration; conditions: room temperature, column buffer (300 mM NaCl, 5 mM MgCl2, 20 mM Tris pH 7.6), 5.49 nM [3H]adenosine, average of two estimates, read-out: Kd for adenosine in solution
Experimental: Although quantitative binding data from column elution experiments is imprecise, an estimate of adenosine affinity in solution was obtained by ultrafiltration experiments (Jenison et al., Science 263:1425-1429, (1994)).
The Kd for adenosine was measured by analytical ultrafiltration (Jenison et al., Science 263:1425-1429, (1994)). In this technique bound and unbound ligand partition across a membrane in a ultra filtration device. DNA (0.06 μM-30 μM) was incubated for 5 min. at room temperature in 200 μl of column buffer containing 5.49 nM [2,8,5'^3H] adenosine. The reaction mixture was loaded onto an Microcon 10 microconcentrator (Amicon) and spun at 14000 RPM in an Eppendorf 5415 centrifuge for 4 min., resulting in 100 μl of ultrafiltrate. This method could not be used with ATP because only 30% of ATP passed through the filter in 50% of the volume. Even with adenosine, only 40-45% passed through in 50% of the volume. The Kd was estimated from the concentration of DNA calculated to decrease the amount of adenosine passing through the filter by 50%. During the course of the experiment the DNA concentration increases by a factor of two since the DNA is retained above the filter; therefore, using the initial DNA concentration would give an artificially low Kd, and using the final DNA concentration would give an artificially high Kd. The Kd reported is the average of these two estimates. […]

Nc1ncnc2c1ncn2[C@H]1O[C@H](CO)[C@@H](O)[C@H]1O [9-α-ribofuranosyladenine]
elution of bound aptamer from the ATP-agarose column by analog [1]: did not elute bound aptamer

Nc1ncnc2c1ncn2[C@@H]1O[C@H](CO)[C@@H](O)[C@H]1O [adenosine]
Kd [2]: 6 ± 3 µM
